{"source": "patent US9375434B2", "about": "“Antitumor effect potentiator composed of imidazooxazine compound” (Taiho Pharmaceutical Co., Ltd., priority 2012, dated 2016)", "key": {"[1]": {"test_system": "Human ovarian cancer cell line (A2780)", "experiment": "Potentiation of antitumor effect of carboplatin, A2780 subcutaneous implant (Test Example 3)", "type": "in vivo, nude rats", "conditions": "compound-I 16 mg/kg/day p.o. day 1-14", "protocol": "In the figure, the asterisk represents a result having a statistically significant difference compared with the single-drug administration group. FIG. 1 and Table 10 show the results. […] Carboplatin was prepared by diluting a […] injection (Bristol-Myers Squibb, 50 mg/5 mL) two-fold with physiological saline to enable administration at a carboplatin dose of 50 mg/kg/day. Further, the test liquid of Compound-I was prepared by adjusting its dose to 16 mg/kg/day. […] The single-drug administration group was administered 0.5% HPMC or a physiological saline as a vehicle instead of Compound-I or carboplatin. […] FIG. 5 and Table 12 show the results. […] The effect of the combined administration was also statistically determined in the same manner as in Test Example 1. In the figure and the table, the asterisk represents a result having a statistically significant difference compared with the single-drug administration group."}, "[2]": {"test_system": "Human ovarian cancer cell line (A2780)", "experiment": "Potentiation of antitumor effect of irinotecan, A2780 subcutaneous implant in nude mice (Test Example 5)", "type": "in vivo, BALB/cA Jcl-nu/nu mice", "conditions": "compound-I 16 mg/kg/day p.o. day 1-14", "protocol": "(§1) As an index of antitumor effect, the TV at Day 15 was measured for each of the drug administration groups, and the relative tumor volume (RTV) relative to Day 1 and T/C (%) were calculated by the following formulas to evaluate the antitumor effect.\n(§2) TV (mm^3)=(length×width^2)/2 RTV=(TV at Day 15)/(TV at Day 1) T/C(%)=(average RTV value of the test liquid administration group)/(average RTV value of the control group)×100\nHuman ovarian cancer cell line (A2780) was subcutaneously implanted into the right flank of 7-week-old male BALB/cA Jcl-nu/nu mice, and was used in the same manner as in Test Example 1. […] Further, the test liquid of Compound-I was prepared by adjusting its dose to 16 mg/kg/day.\nThe effect of the combined administration was also statistically determined in the same manner as in Test Example 1. […] FIG. 9 and Table 14 show the results. Further, the change in the body weight over time was evaluated as an index of toxicity in the same manner as in Test Example 1."}, "[3]": {"test_system": "Human ovarian cancer cell line (A2780)", "experiment": "Potentiation of antitumor effect of doxorubicin, A2780 subcutaneous implant in nude mice (Test Example 6)", "type": "in vivo, BALB/cA Jcl-nu/nu mice", "protocol": "In the groups receiving only Compound-I, the test liquid was prepared by diluting Compound-I with 0.5% HPMC to enable administration at a Compound-I dose of 16 mg/kg/day. […] The effect of the combined administration was also statistically determined in the same manner as in Test Example 1."}, "[4]": {"test_system": "Human stomach cancer cell line (4-1ST)", "experiment": "Potentiation of antitumor effect of TS-1, 4-1ST subcutaneous implant in nude mice (Test Example 8)", "type": "in vivo, BALB/cA Jcl-nu/nu mice", "protocol": "as §1, with “effect. […] In the figure, the asterisk represents a result having a statistically significant difference compared with the single-drug administration group.” for “effect.”\nFIG. 1 and Table 10 show the results. TV (mm^3)=(length×width^2)/2 RTV=(TV at Day 15)/(TV at Day 1) T/C(%)=(average RTV value of the test liquid administration group)/(average RTV value of the control group)×100\n(§3) Human stomach cancer cell line (4-1ST) was subcutaneously implanted into the right flank of 6-week-old male BALB/cA Jcl-nu/nu mice, and was used in the same manner as in Test Example 1.\nTS-1 was prepared by mixing FT (tegafur; Taiho Pharmaceutical Co., Ltd.), CDHP (gimeracil; Taiho Pharmaceutical Co., Ltd.) and Oxo (oteracil potassium; Taiho Pharmaceutical Co., Ltd.) at a molar ratio of 1:0.4:1, adding a 0.5% (w/v) HPMC aqueous solution to the mixture at an FT concentration of 1.66 mg/mL, and subjecting the mixture to a ultrasonic treatment to obtain an even suspension (an administration liquid having a double concentration of the liquid in the group of 8.3 mg/kg/day dose). The suspension was diluted two-fold with a 0.5% (w/v) HPMC aqueous solution to a concentration of 0.83 mg/mL, thereby yielding an administration liquid to be used for the group of 8.3 mg/kg/day dose. Further, the test liquid of Compound-I was prepared by adjusting its dose to 16 and 24 mg/kg/day.\nCompound-I and TS-1 were orally administered once a day for 14 days from Day 1. In the combined administration groups, Compound-I at a dose of 16 and 24 mg/kg/day, and TS-1 at a dose of 8.3 mg/kg/day were administered, and the evaluation was performed in the same manner as in Test Example 1. FIGS. 15A and 15B, and Table 17 show the results.\nIn the same manner as in Test Example 7, the effect of the combined administration was also statistically determined. In the figure and the table, the asterisk represents a result having a statistically significant difference compared with the single-drug administration group."}, "[5]": {"test_system": "Human stomach cancer cell line (4-1ST)", "experiment": "Potentiation of effect of trastuzumab (Herceptin), 4-1ST subcutaneous implant in nude mice (Test Example 11)", "type": "in vivo, BALB/cA Jcl-nu/nu mice", "conditions": "Day 1~14, p.o.", "protocol": "as §1, §2, §3\nAccording to the package insert, 7.2 mL of water for injection was added to a vial containing 150 mg of trastuzumab (Roche Pharma) using a sterilized injection syringe. The resulting 21 mg/mL solution was kept in a freezer. At the time of use, the frozen solution was diluted 10.5-fold with 4.75 mL of physiological saline at a trastuzumab concentration of 2.0 mg/mL, to yield a liquid for administration at a trastuzumab dose of 20 mg/kg/day. The test liquids of Compound-I were prepared to enable administration at doses of 16 and 24 mg/kg/day.\nCompound-I and trastuzumab were administered once a day from Day 1 to 14. In the combined administration groups, Compound-I was administrated at a dose of 16 and 24 mg/kg/day, trastuzumab was administrated at a dose of 20 mg/kg/day, and the evaluation was performed in the same manner as in Test Example 1. FIGS. 17A and 17B and Table 20 show the results. In the medium/Compound I administration group, the test liquid was orally administered once a day for consecutive days. In the trastuzumab administration group, the test liquid was intraperitoneally administered once a day for consecutive days.\nThe effect of the combined administration was statistically determined in the same manner as in Test Example 7."}, "[6]": {"conditions": "compound-I 16 mg/kg/day p.o. day 1-14"}, "[7]": {"conditions": "compound-I 24 mg/kg/day p.o. day 1-14"}}, "data": [{"smiles": "CC1(O)CC(N)(c2ccc(-c3nc4n(c3-c3ccccc3)COc3ccncc3-4)cc2)C1", "note": "(stereo not drawn) [compound-I, trans-3-amino-1-methyl-3-(4-(3-phenyl-5H-imidazo[1,2-c]pyrido[3,4-e][1,3]oxazin-2-yl)phenyl)cyclobutanol]", "values": [{"measurement": "RTV day 15 Mean ± SD", "setting": "[1]", "result": "20.86 ± 4.84"}, {"measurement": "T/C (%)", "setting": "[1]", "result": 81, "unit": "%"}, {"measurement": "RTV day 15 Mean ± SD", "setting": "[2]", "result": "19.16 ± 2.60"}, {"measurement": "T/C (%)", "setting": "[2]", "result": 63, "unit": "%"}, {"measurement": "T/C (%)", "setting": "[3]; compound-I 16 mg/kg/day day 1-14", "result": 80, "unit": "%"}, {"measurement": "RTV day 15 Mean ± SD", "setting": "[3]; [6]", "result": "22.17 ± 7.20"}, {"measurement": "RTV day 15 Mean ± SD", "setting": "[4]; [6]", "result": "4.53 ± 0.59"}, {"measurement": "T/C (%)", "setting": "[4]; [6]", "result": 38.1, "unit": "%"}, {"measurement": "RTV day 15 Mean ± SD", "setting": "[4]; [7]", "result": "3.83 ± 0.48"}, {"measurement": "T/C (%)", "setting": "[4]; [7]", "result": 32.2, "unit": "%"}, {"measurement": "RTV^b) (mean ± SD)", "setting": "[5]; compound-I 16 mg/kg/day", "result": "3.01 ± 0.51"}, {"measurement": "TGI^c) (%)", "setting": "[5]; compound-I 16 mg/kg/day", "result": 57.5, "unit": "%"}, {"measurement": "RTV^b) (mean ± SD)", "setting": "[5]; compound-I 24 mg/kg/day", "result": "2.74 ± 0.29"}, {"measurement": "TGI^c) (%)", "setting": "[5]; compound-I 24 mg/kg/day", "result": 61.4, "unit": "%"}]}]}
